The text below walks through data of patent US6822146B2, “Sulfonylurea-tolerant sunflower line M7” (priority 2000, dated 2004).

Common to all, as to format: in vivo, sunflower
The test system of one series is BC4-M5M7 × PHA155. Description: Test C field phytotoxicity, BC4-M5M7 × PHA155. The text has this:
A rating of 0% phytotoxicity means no crop injury.

In the next series the test system is 'M2' seeds. Description: Hydroponic selection of M2 seeds with sulfonylurea herbicides. The following applies: hydroponic beds. How it is done: ‘M2’ seeds were seeded in individual hydroponic beds described as “Large-Scale Hydroponic Screening System” in U.S. Pat. No. 5,084,082 and treated with sulfonylurea herbicides. For each treatment, 10,000 seeds were added per bed. […] Most of the treatments used thifensulfuron-methyl at 20, 40 or 50 μg/L or rimsulfuron at 40 or 80 μg/L. Five plants showing resistance to sulfonylurea herbicides were found during various selection experiments; these are identified in Table 2.

The subject of the next series is M5M11. Description: Test B greenhouse phytotoxicity, M5M11. The following applies: in vivo. The essentials: (§1)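 Formulated ALS-inhibiting herbicides sprayed post-emergence at the 4-leaf stage on homozygous mutant sunflower inbreds (M5 maintainers and BC4 male-sterile back-crosses) in the greenhouse, at rates commonly used in registered crops. Two replicates; crop injury rated as % phytotoxicity, 0% meaning no injury.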

The test system of series [1] is homozygous progeny of the three mutant sources. The note with it: Test B application rates, post-emergence. The essentials:
as §1

For `COC(=O)c1cccc(C)c1S(=O)(=O)NC(=O)Nc1nc(OCC(F)(F)F)nc(N(C)C)n1` [Triflusulfuron-methyl, triflusulfuron-methyl], the “Phytotoxicity Rating After Treatment” value worked out at 38% with BC4-M5M7 × PHA155 (postemergence 7.5 g a.i./ha, 7 DAT); 40% in the series on BC4-M5M7 × PHA155 (postemergence 7.5 g a.i./ha, 15 DAT); 28% with BC4-M5M7 × PHA155 (postemergence 7.5 g a.i./ha, 30 DAT); 57% in the series on BC4-M5M7 × PHA155 (postemergence 15 g a.i./ha, 7 DAT); 53% in the series with BC4-M5M7 × PHA155 (postemergence 15 g a.i./ha, 15 DAT); 40% in the series on BC4-M5M7 × PHA155 (postemergence 15 g a.i./ha, 30 DAT). Further, the “suitability as selection agent” value in the series with 'M2' seeds is on record as “insufficiently active on sunflower”.
On to `COC(=O)c1ccccc1S(=O)(=O)NC(=O)N(C)c1nc(C)nc(OC)n1` [Tribenuron-methyl, tribenuron-methyl], for which the “Maximum Phytotoxicity” value with M5M11 is 0%. In series [1], the “tolerance of the mutants” value is reported as “good tolerance”.
